In patent US20210163976A1, “GENETICALLY ALTERED PLANTS EXPRESSING HETEROLOGOUS RECEPTORS THAT RECOGNIZE LIPO-CHITOOLIGOSACCHARIDES” (Aarhus Universitet, priority 2018, published 2021):
Entries after “also recorded” stand apart in the source; their conditions may differ.

Columns and labels:
[1] = molecular target: T1, Medicago NFP ectodomain (NFP-ECD, WT) (Medicago truncatula, UniProt Q0GXS4); experiment: Biolayer interferometry (BLI) binding of NFP-ECD to immobilized biotinylated ligands; conditions: further BLI assays, FIGS. 15B-15E; listed as chitin
T1 construct: The Medicago truncatula NFP ectodomain (residues 28-246) was codon-optimized; AcMNPV gp67 signal peptide (replaces native signal peptide 1-27) (N); made in house; host or cells: Sf9 (Spodoptera frugiperda), baculovirus, secreted into medium
T1 sequence (Q0GXS4 28-246): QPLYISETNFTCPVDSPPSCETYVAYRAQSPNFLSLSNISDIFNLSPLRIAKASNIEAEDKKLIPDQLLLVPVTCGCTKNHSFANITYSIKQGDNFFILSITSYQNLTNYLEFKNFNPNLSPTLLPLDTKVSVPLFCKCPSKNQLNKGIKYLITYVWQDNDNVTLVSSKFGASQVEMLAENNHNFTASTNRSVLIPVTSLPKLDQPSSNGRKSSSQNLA
Protocol: (§1) Expression and purification of Medicago NFP ectodomain: The Medicago truncatula NFP ectodomain (residues 28-246) was codon-optimized for insect cell expression (Genscript, Piscataway, USA) and cloned into the pOET4 baculovirus transfer vector (Oxford Expression Technologies). The native NFP signal peptide (residues 1-27, predicted by SignalP 4.1) was replaced with the AcMNPV gp67 signal peptide to facilitate secretion and a hexa-histidine tag was added to the C-terminus. Point mutants of NFP were engineered using site-directed mutagenesis. Recombinant baculoviruses were produced in Sf9 cells (Spodoptera frugiperda) using the FlashBac Gold kit (Oxford Expression technologies) according to the manufacturer's instructions with Lipofectin (ThermoFisher Scientific) as a transfection reagent. Protein expression was performed as follows. Suspension-cultured Sf9 cells were maintained with shaking at 299 K in serum-free MAX-XP (BD-Biosciences, discontinued) or HyClone SFX (GE Healthcare) medium supplemented with 1% Pen-Strep (10000 U/ml, Life technologies) and 1% CD lipid concentrate (Gibco). Protein expression was induced by adding recombinant passage 3 virus once the Sf9 cells reached a cell density of 1.0*10^7^6 cells/ml. After 5-7 days of expression, medium supernatant containing NFP ectodomains was harvested by centrifugation. This was followed by an overnight dialysis step against 50 mM Tris-HCl pH 8, 200 mM NaCl at 277 K. The NFP ectodomain was enriched by two subsequent steps of Ni-IMAC purification (HisTrap excel/HisTrap HP, both GE Healthcare). For crystallography experiments, N-glycans were removed using the endoglycosidase PNGase F (1:15 (w/w), room temperature, overnight). As a final purification step, NFP ectodomain was purified by SEC on a Superdex 200 10/300 or HiLoad Superdex 200 16/600 (both GE Healthcare) in phosphate buffered saline at pH 7.2 supplemented to a total of 500 mM NaCl (for binding assays) or 50 mM Tris-HCl, 200 mM NaCl (for crystallography). NFP ectodomain elutes as a single, homogeneous peak corresponding to a monomer. Point mutated versions of NFP were expressed and purified following the same protocol.
(§2) Biolayer interferometry (BLI): Binding of NFP and mutated versions of NFP to ligands was measured on an Octet RED 96 system (Pall ForteBio). The ligands used were LCO-IV (from S. meliloti), LCO-V (from S. meliloti), LCO-V (from M. loti), and C06 (from M. loti). S. meliloti LCO consists of a tetrameric/pentameric N-acetylglucosamine backbone that is 0-sulfated on the reducing terminal residue, 0-acetylated on the non-reducing terminal residue, and mono-N-acylated by unsaturated C16 acyl groups. M. loti LCO is a pentameric N-acetylglucosamine with a cis-vaccenic acid and a carbamoyl group at the non-reducing terminal residue together with a 2,4-O-acetylfucose at the reducing terminal residue. Biotinylated ligand conjugates were immobilized on streptavidin biosensors (kinetic quality, Pall ForteBio) at a concentration of 125-250 nM for 5 minutes. The binding assays using the S. meliloti ligands (LCO-IV and LCO-V) were replicated seven times, while the binding assays using the M loti ligands (LCO-V and C06) were replicated six times. Data analysis was performed in GraphPad Prism 6 software (GraphPad Software, Inc.). Equilibrium dissociation constants derived from the steady-state were determined by applying a non-linear regression (one site, specific binding) to the response at equilibrium plotted against the protein concentration. Kinetic parameters were determined by non-linear regression (association followed by dissociation) on the subtracted data.
(§3) Mutated lipochitooligosaccharide (LCO) ligands: S. meliloti LCO consists of a tetrameric/pentameric N-acetylglucosamine backbone that is O-sulfated on the reducing terminal residue, O-acetylated on the non-reducing terminal residue, and mono-N-acylated by unsaturated C16 acyl groups. […]

HvRLK10 ectodomain = experiment: BLI binding of HvRLK10 ectodomain to ligands; parameters: species or system H. vulgare; conditions: FIGS. 13A, 13C, 13D
[2] = molecular target: T2, Medicago truncatula NFP ectodomain (NFP-ECD, residues 28-246), wild type, SEQ ID NO: 1 (Medicago truncatula, UniProt Q0GXS4); experiment: Biolayer interferometry (BLI) binding of NFP / NFP-ECD to immobilized LCO and CO ligands; conditions: further BLI assays, FIGS. 15B-15E, analyte 1.56-100 μM; listed as chitin
T2 construct: The Medicago truncatula NFP ectodomain (residues 28-246); AcMNPV gp67 signal peptide (replaces native signal peptide 1-27) (N); hexa-histidine tag (C); made in house; host or cells: Sf9 cells (Spodoptera frugiperda), baculovirus
Protocol: as §1, §2, §3

[3] = molecular target: T2, Medicago truncatula NFP ectodomain (NFP-ECD, residues 28-246), wild type, SEQ ID NO: 1; experiment: Microscale thermophoresis (MST) binding of NFP to carbohydrate ligands; conditions: read-out: Dissociation constant (Kd)
Protocol: as §1, with “Point mutated versions of NFP were expressed and purified following the same protocol.” left out

[4] = molecular target: T3, Hordeum vulgare RLK10 (HvRLK10; HvLysM-RLK10) ectodomain (residues 25-231), SEQ ID NO: 29 (construct SEQ ID NO: 28) (Hordeum vulgare, UniProt A0A8I6Y103); experiment: BLI binding of barley HvRLK10 ectodomain; parameters: species or system Hordeum vulgare (barley); conditions: FIGS. 13A, 13C-13D
T3 construct: full-length natural protein 633 aa beginning […]
T3 sequence (A0A8I6Y103 25-231): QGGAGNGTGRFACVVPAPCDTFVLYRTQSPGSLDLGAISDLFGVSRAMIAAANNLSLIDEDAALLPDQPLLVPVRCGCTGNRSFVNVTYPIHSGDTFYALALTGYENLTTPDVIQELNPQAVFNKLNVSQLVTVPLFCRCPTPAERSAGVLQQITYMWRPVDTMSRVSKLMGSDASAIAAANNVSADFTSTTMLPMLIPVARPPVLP

Medicago NFP ectodomain = molecular target: T4, Medicago NFP ectodomain (Medicago truncatula, UniProt Q0GXS4); experiment: Microscale thermophoresis (MST) binding of ligands to labelled NFP; conditions: carbohydrate ligands
T4 construct: The Medicago truncatula NFP ectodomain (residues 28-246) was codon-optimized; AcMNPV gp67 signal peptide (replaces native signal peptide 1-27) (N); made in house; host or cells: Sf9 (Spodoptera frugiperda), baculovirus, secreted into medium
T4 sequence (Q0GXS4 28-246): T1 sequence (Q0GXS4 28-246)
Protocol: Expression and purification of Medicago NFP ectodomain: The Medicago truncatula NFP ectodomain (residues 28-246) was codon-optimized for insect cell expression (Genscript, Piscataway, USA) and cloned into the pOET4 baculovirus transfer vector (Oxford Expression Technologies). The native NFP signal peptide (residues 1-27, predicted by SignalP 4.1) was replaced with the AcMNPV gp67 signal peptide to facilitate secretion and a hexa-histidine tag was added to the C-terminus. Point mutants of NFP were engineered using site-directed mutagenesis. Recombinant baculoviruses were produced in Sf9 cells (Spodoptera frugiperda) using the FlashBac Gold kit (Oxford Expression technologies) according to the manufacturer's instructions with Lipofectin (ThermoFisher Scientific) as a transfection reagent. Protein expression was performed as follows. Suspension-cultured Sf9 cells were maintained with shaking at 299 K in serum-free MAX-XP (BD-Biosciences, discontinued) or HyClone SFX (GE Healthcare) medium supplemented with 1% Pen-Strep (10000 U/ml, Life technologies) and 1% CD lipid concentrate (Gibco). Protein expression was induced by adding recombinant passage 3 virus once the Sf9 cells reached a cell density of 1.0*10^7^6 cells/ml. After 5-7 days of expression, medium supernatant containing NFP ectodomains was harvested by centrifugation. […]

Row | Compound | NFP-ECD binding (BLI) [1] | HvRLK10 ectodomain binding (BLI) (HvRLK10 ectodomain) | Binding to NFP-ECD (in words) [2] | Kd [3] [µM] | Binding to HvRLK10 ectodomain (in words) [4] | binding to NFP (MST) (Medicago NFP ectodomain)
1 | CC(=O)N[C@H]1[C@H](O[C@H]2[C@H](O)[C@@H](NC(C)=O)[C@H](O[C@H]3[C@H](O)[C@@H](NC(C)=O)C(O)O[C@@H]3CO)O[C@@H]2CO)O[C@H](CO)[C@@H](O[C@@H]2O[C@H](CO)[C@@H](O[C@@H]3O[C@H](CO)[C@@H](O)[C@H](O)[C@H]3NC(C)=O)[C@H](O)[C@H]2NC(C)=O)[C@@H]1O (stereo partly drawn) [CO5] | did not bind; also recorded: does not bind | did not bind | did not bind; also recorded: does not bind | 93 | did not bind | 
2 | maltohexaose |  |  |  |  |  | not able to bind
